Measured values published in patent US20140235520A1, “Perfume Compositions” (Givaudan Nederland Services B.V., priority 2005, published 2014).

Columns and labels:
[1] = test system: Escherichia coli ATCC 10536; assay: Standardised biofilm detachment assay (96 well microtitre plate, crystal violet OD540) in quarter strength GPC base Formula A; format: cell-based; conditions: for Group (PDV class: active / non-active / antagonist to biofilm detachment): ingredient as 1 of 4 equal-weight ingredients (other 3 Group B), perfume 0.25% w/w in quarter strength GPC base Formula A, 20 min 21° C., flavour ingredients classed in toothpaste base
[2] = test system: Escherichia coli ATCC 10536; assay: Biofilm detachment assay in quarter strength modified transparent silica toothpaste base (Formula B); format: cell-based; conditions: positive control, Example 3
Experimental: The procedure described in example 1(a) was repeated but wherein flavour compositions comprising flavour ingredients from the oral care palette to be tested were prepared. The compositions were added to a modified transparent silica toothpaste base (diluted to quarter strength) together with de-ionised water to produce test mixtures with the composition as set out in Formula B below. [table] A percentage detachment value (PDV) for each test mixture was then calculated using the following formula: PDV=100−([OD540 for Test Mixture÷OD540 for Water Control]×100). […] The PDV scores were therefore adjusted to account for base influences on flavour behaviour and Detachment Index (DI) values quoted for each flavour composition.

## CC(=O)C1=C(C)C2CC3(C1)C(C)CCC3C2(C)C (stereo not drawn) [1-(2,6,6,8-tetramethyltricyclo [5.3.1.0̂{1,5}]undec-8-en-9-yl)ethanone]
[1]
  Group (PDV class: active / non-active / antagonist to biofilm detachment): A (Group A materials that assist biofilm detachment are defined as those having a PDV (as defined above) of at least 9)

## COc1ccc(CC(C)C=O)cc1 (stereo not drawn) [2-methyl-3-[4-(methyoxy)phenyl]propanal]
[1]
  Group (PDV class: active / non-active / antagonist to biofilm detachment): C (Group C materials that are antagonistic to biofilm detachment are defined as those having a PDV (as defined above) of less than or equal to 0)

## CC1(C)CCCC2(C)C1CCC1(C)OCCC12 (stereo not drawn) [3a,6,6,9a-tetramethyldodecahydronaphtho[2,1-{b}]furan]
[1]
  Group (PDV class: active / non-active / antagonist to biofilm detachment): B (Group B materials that are non-active to biofilm detachment are defined as those having a PDV (as defined above) of less than 9 and greater than 0)

## CCCCCCCCCCCCOS(=O)(=O)[O-].[Na+] [SLS, sodium lauryl sulphate, reference compound]
[1]; positive control, 2% w/w in deionised water
  PDV: about 80%
[2]
  PDV: about 80%

## CCC(=O)OC1CC2CC1C1C=CCC21 (stereo not drawn) [tricyclo[5.2.1.0̂{2,6}]dec-4-en-8-yl propanoate]
[1]
  Group (PDV class: active / non-active / antagonist to biofilm detachment): B (Group B materials that are non-active to biofilm detachment are defined as those having a PDV (as defined above) of less than 9 and greater than 0)
